Measurements published in article PMC6934184, “Selective DNA-PKcs inhibition extends the therapeutic index of localized radiotherapy and chemotherapy” (The Journal of Clinical Investigation, 2019).

Target: T1, ABL1 Q252H (Homo sapiens, UniProt P00519, Q252H)
T1 construct: purchased Thermo Fisher Scientific (Life Technologies) SelectScreen
Assay: SelectScreen LanthaScreen
Format: binding
Conditions: read-out: % displacement
In short: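 NU5455 was profiled across the SelectScreen Broad panel of kinase activity and binding assays. Z'LYTE reactions such as CSF1R ran at apparent Km ATP, while the Adapta CAMK1 assay used ATP listed as 10. Values are given as percent.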

Q: For `CN(C(=O)CN1CCOCC1)c1ccc2sc3c(-c4cccc5c(=O)cc(N6CC7CCC(C6)O7)oc45)cccc3c2c1` [NU5455], which inhibition at 1 µM is on record?
A: Its inhibition at 1 µM is 1.1%.
